What follows are molecules tested on tau protein (assay: Tau protein in vitro degradation assay (Western blot, Tau-13 antibody)). Settings: SK-N-SH cells; 72 hours of incubation; tested at 300 nM, 100 nM, 33 nM and 11 nM; Western blot, Tau-13 antibody.
Assay type: cell-based, human
Outline: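 SK-N-SH cells, seeded ≥18 h beforehand, were incubated 72 h with tau PROTACs at 1000, 300 and 100 nM or at 300, 100, 33 and 11 nM. Lysates in protease-inhibitor buffer were resolved by SDS-PAGE; tau quantified by Western blot with Tau-13 antibody recognising all human tau forms.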

SMILES	Degradation activity* (highest amount of degradation observed at any dosage; tau protein remaining)
Cn1c2ccncc2c2ccc(-c3cnc(O[C@H]4C[C@H](OCCCOCCCOC5CN(c6ccc7c(c6)C(=O)N(C6CCC(=O)NC6=O)C7=O)C5)C4)c(C(F)(F)F)c3)cc21 (some centres unmarked) [Compound 125, 2-(2,6-dioxopiperidin-3-yl)-5-(3-(3-(3-((1r,3r)-3-((5-(5-methyl-5H-pyrido[4,3-b]indol-7-yl)-3-(trifluoromethyl)pyridin-2-yl)oxy)cyclobutoxy)propoxy)propoxy)azetidin-1-yl)isoindoline-1,3-dione]	C (>80% tau protein remaining after 72 hours of incubation with the test compound)
Cn1c2ccncc2c2ccc(-c3ccc(O[C@H]4C[C@H](N(C)C5CC6(C5)CN(CCCCCOc5ccc7c(c5)C(=O)N(C5CCC(=O)NC5=O)C7=O)C6)C4)nc3)cc21 (some centres unmarked) [Compound 126, 2-(2,6-dioxopiperidin-3-yl)-5-((5-(6-(methyl((1r,3r)-3-((5-(5-methyl-5H-pyrido[4,3-b]indol-7-yl)pyridin-2-yl)oxy)cyclobutyl)amino)-2-azaspiro[3.3]heptan-2-yl)pentyl)oxy)isoindoline-1,3-dione]	B (≤80% and >50% tau protein remaining after 72 hours of incubation with the test compound)
Cn1c2ccncc2c2ccc(-c3ccc(N4CCC(CN5CCN(c6ccc7c(c6)CN(C6CCC(=O)NC6=O)C7=O)CC5)CC4)nc3)cc21 (centres unmarked) [Compound 127, 3-(5-(4-((1-(5-(5-methyl-5H-pyrido[4,3-b]indol-7-yl)pyridin-2-yl)piperidin-4-yl)methyl)piperazin-1-yl)-1-oxoisoindolin-2-yl)piperidine-2,6-dione]	C (>80% tau protein remaining after 72 hours of incubation with the test compound)
Cn1c2ccncc2c2ccc(-c3ccc(N4CCC(CCN5CCN(c6ccc7c(c6)CN(C6CCC(=O)NC6=O)C7=O)CC5)CC4)nc3)cc21 (centres unmarked) [Compound 128, 3-(5-(4-(2-(1-(5-(5-methyl-5H-pyrido[4,3-b]indol-7-yl)pyridin-2-yl)piperidin-4-yl)ethyl)piperazin-1-yl)-1-oxoisoindolin-2-yl)piperidine-2,6-dione]	C (>80% tau protein remaining after 72 hours of incubation with the test compound)
Cn1c2ccncc2c2ccc(-c3ccc(OCCOCCOCCOCCCCC(Oc4ccc5c(c4)C(=O)N(C4CCC(=O)NC4=O)C5=O)C(F)(F)F)nc3)cc21 (centres unmarked) [Compound 129, 2-(2,6-dioxopiperidin-3-yl)-5-((1,1,1-trifluoro-6-(2-(2-(2-((5-(5-methyl-5H-pyrido[4,3-b]indol-7-yl)pyridin-2-yl)oxy)ethoxy)ethoxy)ethoxy)hexan-2-yl)oxy)isoindoline-1,3-dione]	C (>80% tau protein remaining after 72 hours of incubation with the test compound)
Cn1c2ccncc2c2ccc(-c3cnc(OC4CCN(CCCOCCCOC5CN(c6ccc7c(c6)C(=O)N(C6CCC(=O)NC6=O)C7=O)C5)CC4)c(C(F)(F)F)c3)cc21 (centres unmarked) [Compound 130, 2-(2,6-dioxopiperidin-3-yl)-5-(3-(3-(3-(4-((5-(5-methyl-5H-pyrido[4,3-b]indol-7-yl)-3-(trifluoromethyl)pyridin-2-yl)oxy)piperidin-1-yl)propoxy)propoxy)azetidin-1-yl)isoindoline-1,3-dione]	B (≤80% and >50% tau protein remaining after 72 hours of incubation with the test compound)
Cn1c2ccncc2c2ccc(-c3ccc(OCCOCCOCCOCCOCCOCCOc4ccc5c(c4)C(=O)N(C4CCC(=O)NC4=O)C5=O)nc3)cc21 (centres unmarked) [Compound 131, 2-(2,6-dioxopiperidin-3-yl)-5-((17-((5-(5-methyl-5H-pyrido[4,3-b]indol-7-yl)pyridin-2-yl)oxy)-3,6,9,12,15-pentaoxaheptadecyl)oxy)isoindoline-1,3-dione]	A (≤50% tau protein remaining after 72 hours of incubation with the test compound)
Cn1c2ccncc2c2ccc(-c3ccc(OCCOCCOCCOCCOCCOCCOCCOc4ccc5c(c4)C(=O)N(C4CCC(=O)NC4=O)C5=O)nc3)cc21 (centres unmarked) [Compound 132, 2-(2,6-dioxopiperidin-3-yl)-5-((20-((5-(5-methyl-5H-pyrido[4,3-b]indol-7-yl)pyridin-2-yl)oxy)-3,6,9,12,15,18-hexaoxaicosyl)oxy)isoindoline-1,3-dione]	A (≤50% tau protein remaining after 72 hours of incubation with the test compound)
Cn1c2ccncc2c2ccc(-c3ccc(OCCCCCOCCCCCCC4CN(c5ccc6c(c5)C(=O)N(C5CCC(=O)NC5=O)C6=O)C4)nc3)cc21 (centres unmarked) [Compound 133, 2-(2,6-dioxopiperidin-3-yl)-5-(3-(6-((5-((5-(5-methyl-5H-pyrido[4,3-b]indol-7-yl)pyridin-2-yl)oxy)pentyl)oxy)hexyl)azetidin-1-yl)isoindoline-1,3-dione]	A (≤50% tau protein remaining after 72 hours of incubation with the test compound)
Cn1c2ccncc2c2ccc(-c3ccc(O[C@H]4C[C@H](Oc5ccc(C#CCCCCOc6ccc7c(c6)C(=O)N(C6CCC(=O)NC6=O)C7=O)nn5)C4)nc3)cc21 (some centres unmarked) [Compound 134, 2-(2,6-dioxopiperidin-3-yl)-5-((6-(6-((1r,3r)-3-((5-(5-methyl-5H-pyrido[4,3-b]indol-7-yl)pyridin-2-yl)oxy)cyclobutoxy)pyridazin-3-yl)hex-5-yn-1-yl)oxy)isoindoline-1,3-dione]	B (≤80% and >50% tau protein remaining after 72 hours of incubation with the test compound)
Cn1c2ccncc2c2ccc(-c3ccc(O[C@H]4C[C@H](CN5CC6(CC(OCCCCOc7ccc8c(c7)C(=O)N(C7CCC(=O)NC7=O)C8=O)C6)C5)C4)nc3)cc21 (some centres unmarked) [Compound 135, 2-(2,6-dioxopiperidin-3-yl)-5-(4-((2-(((1r,3r)-3-((5-(5-methyl-5H-pyrido[4,3-b]indol-7-yl)pyridin-2-yl)oxy)cyclobutyl)methyl)-2-azaspiro[3.3]heptan-6-yl)oxy)butoxy)isoindoline-1,3-dione]	B (≤80% and >50% tau protein remaining after 72 hours of incubation with the test compound)
Cn1c2ccncc2c2ccc(-c3ccc(O[C@H]4C[C@@H](C(=O)N5CC6(CC(OCCCCOc7ccc8c(c7)C(=O)N(C7CCC(=O)NC7=O)C8=O)C6)C5)C4)nc3)cc21 (some centres unmarked) [Compound 136, 2-(2,6-dioxopiperidin-3-yl)-5-(4-((2-((1 s,3 s)-3-((5-(5-methyl-5H-pyrido[4,3-b]indol-7-yl)pyridin-2-yl)oxy)cyclobutane-1-carbonyl)-2-azaspiro[3.3]heptan-6-yl)oxy)butoxy)isoindoline-1,3-dione]	C (>80% tau protein remaining after 72 hours of incubation with the test compound)
Cn1c2ccncc2c2ccc(-c3ccc(O[C@H]4C[C@H](N(C)C5CC6(C5)CN(C(=O)CCCCOc5ccc7c(c5)C(=O)N(C5CCC(=O)NC5=O)C7=O)C6)C4)nc3)cc21 (some centres unmarked) [Compound 137, 2-(2,6-dioxopiperidin-3-yl)-5-((5-(6-(methyl((1r,3r)-3-((5-(5-methyl-5H-pyrido[4,3-b]indol-7-yl)pyridin-2-yl)oxy)cyclobutyl)amino)-2-azaspiro[3.3]heptan-2-yl)-5-oxopentyl)oxy)isoindoline-1,3-dione]	C (>80% tau protein remaining after 72 hours of incubation with the test compound)
O=C1CCC(N2C(=O)c3ccc(OCCOCCOCCOCCOCCOc4ccc(-c5ccc6c7cnccc7n(C(F)F)c6c5)cn4)cc3C2=O)C(=O)N1 (centres unmarked) [Compound 138, 5-((14-((5-(5-(difluoromethyl)-5H-pyrido[4,3-b]indol-7-yl)pyridin-2-yl)oxy)-3,6,9,12-tetraoxatetradecyl)oxy)-2-(2,6-dioxopiperidin-3-yl)isoindoline-1,3-dione]	B (≤80% and >50% tau protein remaining after 72 hours of incubation with the test compound)
Cn1c2ccncc2c2ccc(-c3cnc(OCCOCCOCCOCCOCCOc4ccc5c(c4)C(=O)N(C4CCC(=O)NC4=O)C5=O)c(F)c3)cc21 (centres unmarked) [Compound 139, 2-(2,6-dioxopiperidin-3-yl)-5-((14-((3-fluoro-5-(5-methyl-5H-pyrido[4,3-b]indol-7-yl)pyridin-2-yl)oxy)-3,6,9,12-tetraoxatetradecyl)oxy)isoindoline-1,3-dione]	B (≤80% and >50% tau protein remaining after 72 hours of incubation with the test compound)
Cc1cc(-c2ccc3c4cnccc4n(C)c3c2)cnc1OCCOCCOCCOCCOCCOc1ccc2c(c1)C(=O)N(C1CCC(=O)NC1=O)C2=O (centres unmarked) [Compound 140, 2-(2,6-dioxopiperidin-3-yl)-5-((14-((3-methyl-5-(5-methyl-5H-pyrido[4,3-b]indol-7-yl)pyridin-2-yl)oxy)-3,6,9,12-tetraoxatetradecyl)oxy)isoindoline-1,3-dione]	A (≤50% tau protein remaining after 72 hours of incubation with the test compound)
Cn1c2ccncc2c2ccc(-c3ccc(O[C@H]4C[C@H](Oc5cnc(C#CCCCCOc6ccc7c(c6)C(=O)N(C6CCC(=O)NC6=O)C7=O)nc5)C4)nc3)cc21 (some centres unmarked) [Compound 141, 2-(2,6-dioxopiperidin-3-yl)-5-((6-(5-((1r,3r)-3-((5-(5-methyl-5H-pyrido[4,3-b]indol-7-yl)pyridin-2-yl)oxy)cyclobutoxy)pyrimidin-2-yl)hex-5-yn-1-yl)oxy)isoindoline-1,3-dione]	C (>80% tau protein remaining after 72 hours of incubation with the test compound)
